Assay results as given in patent US20120028897A1, “METHODS AND COMPOSITIONS FOR THE TREATMENT OF FLUID RETENTION DISORDERS” (priority 2008, published 2012).

Legend:
[1] = Interconversion of huUgn A and B isomers in vitro (storage at −80° C.; pH 4, 50° C.); type: physicochemical; details: LC-MS at periodic intervals
Description: FIG. 2C is a graph showing the amount of “UgnA like” activity as a function of time in cells treated with either huUgnA and huUgnB. The A and B isomers (filled and open circles, respectively) interconvert slowly in vitro. Peptides were incubated at 50° C. in 1 mM citrate buffer (pH 4) for either 0, 24, or 48 hr. Samples were then diluted into bioassay medium, the pH was adjusted to 7.0, and activity was measured in the T84 cell bioassay. A huUgnA standard curve was generated in the same assay, and cyclic GMP responses were converted to recoveries of “UgnA-like” peptide by interpolation on this standard curve.
HPLC analysis and mass spectroscopy of Ugn isomers. The integrity and purity of huUgnA and B isomer preparations were confirmed by liquid chromatography/mass spectroscopy (LC-MS) analysis. The two Ugn isomers have different retention times on a reverse phase HPLC column (FIG. 1, dashed trace; huUgnA elutes ˜0.35 minutes before huUgnB). Separations were performed on a Hypersil Gold AQ 2.1×50 mm column from Thermo Fisher Scientific Inc (Waltham, Mass.) equilibrated in 98% buffer A (0.1% formic acid), 2% buffer B (85:10:5 Acetonitrile/Isopropyl Alcohol/5 mM NH4OAc pH 5.8) with a flow rate of 0.4 ml/min on an Acquity HPLC system. […]

[2] = tested on: anesthetized rats; experiment: Urine flow rate during and after iv peptide infusion; type: in vivo, rat
Description: Rats were not fasted prior to clearance experiments and ranged in weight from 250-340 g at the time of study. Anesthesia was induced with an intraperitoneal injection of pentobarbital sodium (55 mg/kg BW) and maintained at a surgical plane by intermittent intravenous supplementation. Core temperature was maintained at 37° C. by a servo-controlled, heated operating table. Animals breathed spontaneously through a PE240 cannula inserted into the trachea. A jugular vein was catheterized with PE50 cannula tubing for intravenous infusion of isotonic saline containing FITC-labeled inulin (0.4% W/V, Sigma, St Louis Mo.) and two PE10 cannulae, one for supplemental anesthetic and the other for peptide infusions (described below in the experimental protocol section). The ureters were exposed through a midline ventral incision and cannulated with PE10 tubing about one cm from each kidney. Urine was collected over 20 min periods and the volume estimated by weight. A femoral artery was cannulated with PE50 tubing for continuous measurement of arterial blood pressure and intermittent blood samples (50 μl), taken at the mid point of each urine collection.
(§1) After post-surgical equilibration (−60 min) and three 20 min control clearance periods, huUgnA or B was infused into the jugular vein at 10 μl/min over a 60 min period, followed by a return to isotonic saline for the remainder of the experiment. The infused doses of huUgnA were 12, 25, 50, 100, or 200 nmol/kg BW in a total of 38 rats; huUgnB doses were 9, 18, 35, 70, and 140 nmol/kg BW in 35 rats. A UgnA mimetic, E. coli STh (ST-core), was infused into a third group of 32 rats at doses of 17, 32, 66, 133, and 266 nmol/kg. Renal excretory responses to these infusions were slow to develop and long lasting, so clearance periods were continued for 2-3 hr after the termination of the peptide infusion. This protracted time course limited protocols to one dose of one peptide in each rat. A control group of 10 rats received isotonic saline at 10 μl/min in place of the peptide infusion, but was otherwise treated in the same way as the experimental groups.
Group comparisons were made with one way analysis of variance (ANOVA) using peptide doses as column variables. Columns were further divided into pre-infusion, infusion, and post infusion subgroups to facilitate post hoc testing with Bonferroni's method for selected multiple comparisons. Row variables were individual measurements from each clearance period for each rat. Responses were tested for statistical significance by comparing control values during the pre-infusion, infusion and post infusion collection periods with corresponding values obtained from peptide-infused rats. Each experimental group included 5 different doses of huUgnA, huUgnB, or ST-core. Thus, fifteen comparisons were required for each measured variable in each group.

[3] = tested on: anesthetized rats; experiment: Renal blood flow (flow probe on left renal artery); type: in vivo, rat
Description: Arterial blood pressure was measured with a pressure transducer connected to a cardiovascular analyzer (Model 50110, Stoelting Instruments Wood Dale, Ill.). Left renal blood flow was measured in some rats with a flow probe positioned on the left renal artery and connected to a blood flow monitor (model 1 PRB probe and model T420 monitor, Transonic Systems Inc. Ithaca N.Y.). Arterial pressure, heart rate, and renal blood flow were digitized with an A/D converter (Keithley instruments, Cleveland, Ohio Model KUSB 3100) for display and storage on a Windows-based personal computer using open layers data acquisition software (Dtx_Ez, Data Translation Inc, Marlboro, Mass.). Sodium and potassium concentrations in plasma and urine were measured by flame photometry (Model 943, Instrumentation Laboratory Co., Lexington Mass.). Glomerular filtration rate (GFR) was measured as the renal clearance rate of FITC-labeled inulin
as §1

CC(C)C[C@H](NC(=O)[C@@H]1CSSC[C@@H]2NC(=O)[C@H](CC(C)C)NC(=O)[C@H](CCC(=O)O)NC(=O)[C@@H](NC(=O)[C@H](CC(=O)O)NC(=O)[C@H](CC(=O)O)NC(=O)[C@@H](N)CC(N)=O)CSSC[C@H](NC(=O)[C@H](C)NC(=O)[C@H](C(C)C)NC(=O)[C@H](CC(N)=O)NC(=O)[C@H](C(C)C)NC2=O)C(=O)N[C@@H]([C@@H](C)O)C(=O)NCC(=O)N1)C(=O)O (single isomer, unassigned) [huUgnA, Asn Asp Asp Cys Glu Leu Cys Val Asn Val Ala Cys Thr Gly Cys Leu, reference compound]
conversion from one isoform to the other during storage [1]: did not occur
V (urine flow rate) ([2]; huUgnA 12 nmol, Infusion): 2.34 ± 0.14 μl/min/g KW
V (urine flow rate) ([2]; huUgnA 12 nmol, Post-infuse): 2.73 ± 0.14 μl/min/g KW
V (urine flow rate) ([2]; huUgnA 12 nmol, Pre-infuse): 2.07 ± 0.23 μl/min/g KW
V (urine flow rate) ([2]; huUgnA 25 nmol, Infusion): 2.98 ± 0.28 μl/min/g KW
V (urine flow rate) ([2]; huUgnA 25 nmol, Post-infuse, * p<0.05 vs time control): 3.53 ± 0.25* μl/min/g KW
V (urine flow rate) ([2]; huUgnA 25 nmol, Pre-infuse): 2.13 ± 0.17 μl/min/g KW
V (urine flow rate) ([2]; huUgnA 50 nmol, Infusion): 2.32 ± 0.16 μl/min/g KW
V (urine flow rate) ([2]; huUgnA 50 nmol, Post-infuse): 3.07 ± 0.20 μl/min/g KW
V (urine flow rate) ([2]; huUgnA 50 nmol, Pre-infuse): 2.01 ± 0.13 μl/min/g KW
V (urine flow rate) ([2]; huUgnA 100 nmol, Infusion): 2.48 ± 0.26 μl/min/g KW
V (urine flow rate) ([2]; huUgnA 100 nmol, Post-infuse): 2.67 ± 0.23 μl/min/g KW
V (urine flow rate) ([2]; huUgnA 100 nmol, Pre-infuse): 1.76 ± 0.22 μl/min/g KW
V (urine flow rate) ([2]; huUgnA 200 nmol, Infusion): 2.84 ± 0.40 μl/min/g KW
V (urine flow rate) ([2]; huUgnA 200 nmol, Post-infuse, ** p<0.01 vs time control): 4.12 ± 0.35** μl/min/g KW
V (urine flow rate) ([2]; huUgnA 200 nmol, Pre-infuse): 2.14 ± 0.39 μl/min/g KW
Renal blood flow (RBF) ([3]; 25 nmol UgnA, before (first value of change), n=4): 2.7+0.3 ml/min/g KW
Renal blood flow (RBF) ([3]; after 25 nmol UgnA, p<0.001, n=4): 3.2+0.1 ml/min/g KW

CC(C)C[C@H](NC(=O)[C@@H]1CSSC[C@@H]2NC(=O)[C@H](CC(C)C)NC(=O)[C@H](CCC(=O)O)NC(=O)[C@@H](NC(=O)[C@H](CC(=O)O)NC(=O)[C@H](CC(=O)O)NC(=O)[C@@H](N)CC(N)=O)CSSC[C@H](NC(=O)[C@H](C)NC(=O)[C@H](C(C)C)NC(=O)[C@H](CC(N)=O)NC(=O)[C@H](C(C)C)NC2=O)C(=O)N[C@@H]([C@@H](C)O)C(=O)NCC(=O)N1)C(=O)O (single isomer, unassigned) [huUgnB, Asn Asp Asp Cys Glu Leu Cys Val Asn Val Ala Cys Thr Gly Cys Leu]
conversion from one isoform to the other during storage [1]: did not occur
V (urine flow rate) ([2]; huUgnB 9 nmol, Infusion): 2.22 ± 0.19 μl/min/g KW
V (urine flow rate) ([2]; huUgnB 9 nmol, Post-infuse): 2.55 ± 0.18 μl/min/g KW
V (urine flow rate) ([2]; huUgnB 9 nmol, Pre-infuse): 1.84 ± 0.28 μl/min/g KW
V (urine flow rate) ([2]; huUgnB 18 nmol, Infusion): 2.40 ± 0.15 μl/min/g KW
V (urine flow rate) ([2]; huUgnB 18 nmol, Post-infuse): 3.11 ± 0.32 μl/min/g KW
V (urine flow rate) ([2]; huUgnB 18 nmol, Pre-infuse): 1.79 ± 0.14 μl/min/g KW
V (urine flow rate) ([2]; huUgnB 35 nmol, Infusion): 2.53 ± 0.16 μl/min/g KW
V (urine flow rate) ([2]; huUgnB 35 nmol, Post-infuse, *** p<0.005 vs time control): 3.84 ± 0.27*** μl/min/g KW
V (urine flow rate) ([2]; huUgnB 35 nmol, Pre-infuse): 2.38 ± 0.25 μl/min/g KW
V (urine flow rate) ([2]; huUgnB 70 nmol, Infusion): 3.11 ± 0.71 μl/min/g KW
V (urine flow rate) ([2]; huUgnB 70 nmol, Post-infuse, * p<0.05 vs time control): 3.92 ± 0.5* μl/min/g KW
V (urine flow rate) ([2]; huUgnB 70 nmol, Pre-infuse): 2.04 ± 0.20 μl/min/g KW
V (urine flow rate) ([2]; huUgnB 140 nmol, Infusion): 2.71 ± 0.40 μl/min/g KW
V (urine flow rate) ([2]; huUgnB 140 nmol, Post-infuse, ** p<0.01 vs time control): 4.50 ± 0.80** μl/min/g KW
V (urine flow rate) ([2]; huUgnB 140 nmol, Pre-infuse): 2.24 ± 0.14 μl/min/g KW
Renal blood flow (RBF) ([3]; 35 nmol huUgnB/kg, before (first value of change), n=4): 2.5+0.1 ml/min/g KW
Renal blood flow (RBF) ([3]; after 35 nmol huUgnB/kg, p<0.001, n=4): 3.0+0.4 ml/min/g KW
